Here are results for 23 compounds from patent US5939421A, “Quinazoline analogs and related compounds and methods for treating inflammatory conditions” (Signal Pharmaceuticals, Inc., priority 1997, dated 1999).

pIC50: −log10 of the molar value.

One experiment deals with AP-1. As to the kind of experiment: AP-1 assay: -73 collagenase promoter luciferase reporter in stable Jurkat T-cells, PMA/PHA stimulated. The experiment is classed as cell-based. The settings on record: Homo sapiens, PMA 5 ng/mL + PHA 1 μg/mL, 5 h. The protocol: (§1) Stable human Jurkat T-cells containing an NFκB binding site (from the MHC promoter) fused to a minimal SV-40 promoter driving luciferase expression were used in this experiment. Cells were split to 3×10^5 cells/mL every 2-3 days (cell concentration should not exceed 1×10^6 cells/mL to keep the cells proliferating in log phase). These cells were counted, resuspended in fresh medium containing 10% Serum-Plus at a density of 1×10^6 cells/mL and plated in 96 well round bottom plates (200 μL per well) 18 hours prior to starting the experiment.
(§2) Compounds of this invention, dissolved in dimethyl sulfoxide (3.3, 0.33 and 0.03 μg/mL), were then added to the 96 well plates containing the cells and the plates are incubated for 0.5 h at 37° C. Then 50 ng/mL of phorbol 12-myristate-13-acetate (PMA) and 1 μg/mL of phytohemagglutinin (PHA) was added to each well and the cells were incubated for an additional 5 h at 37° C. The plates were centrifuged at 2200 RPM for 3 minutes at room temperature and then the medium was removed. To each well was added 60 μL of cell lysis buffer and the plates were left at room temperature for 0.25 h. Then 40 μL of each cell extract was transferred to a black 96 well plate and 50 μL of luciferase substrate buffer was added. Luminescence was immediately measured using a Packard TopCount.
(§3) For AP-1, the assay was run as described above for NFκB except stable Jurkat T-cells were used that contained a the -73 collagenase promoter driving luciferase expression. In addition, the concentration of PMA used was 5 ng/mL.
The results of the above assays (expressed as IC50 's, μM) for representative compounds of this invention, as percent inhibition versus control, are presented in Table 3. β-actin was employed as a control […] indicating effects on transcription. The lack of β-actin activity evidences selectivity of the test compounds for the transcription factors AP-1 and NFκB.
(Reporter assays use an easily measured gene product as a stand-in for the process of interest.)

The subject of a further experiment is IL-2. As to the kind of experiment: Inhibition of PMA/PHA-induced IL-2 production (ELISA, supernatants of AP-1 reporter assay). The class given is cell-based. The settings on record: Homo sapiens. The protocol: as §1, §2, §3
(§4) Cytokine levels in the supernatants (25-50 μL aliquots) were determined by ELISA.
A general note: An ELISA detects its analyte on a solid surface through an enzyme-linked reagent.

For another experiment, the system named is IL-8. Description: Inhibition of PMA/PHA-induced IL-8 production (ELISA, supernatants of NFκB reporter assay). The experiment is classed as cell-based. Particulars: Homo sapiens. The protocol:
as §1, §2, §4

The test system of a further experiment is NFκB. Description: NFκB assay: luciferase reporter in stable Jurkat T-cells, PMA/PHA stimulated. The experiment is classed as cell-based. The settings on record: Homo sapiens, PMA 50 ng/mL + PHA 1 μg/mL, 5 h, read-out: NFkB IC50. The protocol: as §1, §2
The subject of experiment [1] is mice. The settings on record: Morris et al., Transplantation Proceedings 1990; cited from earlier work.
Experiment [2] relates to mice. Particulars: Morris et al., Transplantation Proceedings 1990; cited from earlier work. The source holds these as a separate data set.

What is called pIC50 is the negative decadic logarithm of the IC50, by convention in mol/L.

Consider `CC1=CC(=O)N(Nc2nc(-c3ccccc3)nc3ccccc23)C1=O` [Compound 1, 4-(N-AMINOCITRACONAMIDO)-2-PHENYLQUINAZOLINE], for which the pIC50 was 6.70 in the experiment with AP-1, 8.00 in the experiment with IL-2, 8.70 in the experiment on IL-8 and 7.00 in the experiment with NFκB.
For `CC1=CC(=O)N(Nc2nc(-c3cccs3)nc3cnccc23)C1=O` [Compound 2, 4-(N-AMINOCITRACONAMIDO)-2-(2'-THIENYL)PYRIDOPYRIMIDINE], in that order: 7.00, 6.15, 7.00 and 7.00.
On the same counts, the results for `CC1=CC(=O)N(Nc2nc(C(F)(F)F)nc3ccccc23)C1=O` [Compound 3, 4-(N-AMINOCITRACONAMIDO)-2-TRIFLUOROMETHYLQUINAZOLINE] are 7.00, 7.30, 7.52 and 8.00.
For `COc1cccc2nc(C(F)(F)F)nc(NN3C(=O)C=C(C)C3=O)c12` [Compound 4, 4-(N-AMINOCITRACONAMIDO)-5-METHOXY-2-TRIFLUOROMETHYLQUNINAZOLINE], in that order: 8.00, 6.92, 7.30 and 8.00.
On to `CC1=CC(=O)N(Nc2nc(C(F)(F)F)nc3cccc(C)c23)C1=O` [Compound 5, 4-(N-AMINOCITRACONAMIDO)-5-METHYL-2-TRIFLUOROMETHYLQUINAZOLINE], for which the pIC50 in the experiment on AP-1 was 6.30; in the experiment with IL-2, 7.70; with IL-8 it was 8.70; in the experiment with NFκB, 6.70.
Consider `CC1=CC(=O)N(Nc2nc(C(F)(F)F)nc3cc(Cl)ccc23)C1=O` [Compound 6, 4-(N-AMINOCITRACONAMIDO)-7-CHLORO-2-TRIFLUOROMETHYLQUINAZOLINE], for which the pIC50 in the experiment on AP-1 was 6.52; with IL-2, 6.30; with IL-8, 7.30; with NFκB it was 7.00.
As for `CC1=CC(=O)N(Nc2nc(C(F)(F)F)nc3cc(N4CCCCC4)ccc23)C1=O` [Compound 7, 4-(N-AMINOCITRACONAMIDO)-7-(N-PIPERIDYL)-2-TRIFLUOROMETHYLQUNINAZOLINE], the pIC50 in the experiment with IL-2 is 7.15; in the experiment on IL-8, 8.30; in the experiment with NFκB, 7.00.
As for `CSc1ccc2nc(C(F)(F)F)nc(NN3C(=O)C=C(C)C3=O)c2c1` [Compound 8, 4-(N-AMINOCITRACONAMIDO)-6-METHYLTHIO-2-TRIFLUOROMETHYLQUNINAZOLINE], the pIC50 with AP-1 was 7.05; with IL-2, 7.40; with IL-8, 7.30; with NFκB, 7.22.
For `CC1=CC(=O)N(Nc2nc(C(F)(F)F)nc3ccc(S(C)(=O)=O)cc23)C1=O` [Compound 10, 4-(N-AMINOCITRACONAMIDO)-6-METHYLSULFONYL-2-TRIFLUOROMETHYLQUNINAZOLINE], the figures for the pIC50 with AP-1 and with NFκB were 5.00 and 5.10, respectively.
For `CC1=CC(=O)N(Nc2nc(-c3cccs3)nc3ccccc23)C1=O` [Compound 11, 4-(N-AMINOCITRACONAMIDO)-2-(2'-THIENYL)QUNINAZOLINE], in that order: 7.15 and 7.40.
For `CC1=CC(=O)N(N(C)c2nc(-c3cccs3)nc3ccccc23)C1=O` [Compound 12, 4-(N-METHYL-N-AMINOCITRACONAMIDO)-2-(2'-THIENYL)QUNINAZOLINE], in that order: 5.77 and 5.66.
For `COc1cccc2nc(-c3cccs3)nc(NN3C(=O)C=C(C)C3=O)c12` [Compound 13, 4-(N-AMINOCITRACONAMIDO)-5-METHOXY-2-(2'-THIENYL)QUINAZOLINE], the pIC50 in the experiment with AP-1 and in the experiment with NFκB was 8.10 in each case.
Consider `COc1ccc2nc(-c3cccs3)nc(NN3C(=O)C=C(C)C3=O)c2c1` [Compound 14, 4-(N-AMINOCITRACONAMIDO)-6-METHOXY-2-(2'-THIENYL)QUNINAZOLINE], for which the results for the pIC50 in the experiment with AP-1 and in the experiment on NFκB were 8.52 and 8.70, respectively.
`COc1ccc2c(NN3C(=O)C=C(C)C3=O)nc(-c3cccs3)nc2c1` [Compound 15, 4-(N-AMINOCITRACONAMIDO)-7-METHOXY-2-(2'-THIENYL)QUINAZOLINE]: the figures for the pIC50 in the experiment on AP-1 and with NFκB were 7.70 and 8.00, respectively.
On the same counts, the results for `COc1cccc2c(NN3C(=O)C=C(C)C3=O)nc(-c3cccs3)nc12` [Compound 16, 4-(N-AMINOCITRACONAMIDO)-8-METHOXY-2-(2'-THIENYL)QUNINAZOLINE] are 7.70 and 7.70.
In the case of `COc1cc2nc(-c3cccs3)nc(NN3C(=O)C=C(C)C3=O)c2cc1OC` [Compound 17, 4-(N-AMINOCITRACONAMIDO)-6,7-DIMETHOXY-2-(2'-THIENYL)QUINAZOLINE], the pIC50 in the experiment with AP-1 is 7.15; in the experiment on NFκB it was 7.40.
In the case of `COc1cc2c(NN3C(=O)C=C(C)C3=O)nc(-c3cccs3)nc2c(OC)c1OC` [Compound 18, 4-(N-AMINOCITRACONAMIDO)-6,7,8-TRIMETHOXY-2-(2'-THIENYL)QUNINAZOLINE], the results for the pIC50 with AP-1 and with NFκB were 7.70 and 8.00, respectively.
For `COc1cccc2nc(-c3cccs3)nc(N(C)N3C(=O)C=C(C)C3=O)c12` [Compound 19, 4-(N-METHYL-N-AMINOCITRACONAMIDO)-5-METHOXY-2-(2'-THIENYL)QUNINAZOLINE], in that order: 7.15 and 7.00.
On to `CC1=CC(=O)N(Nc2nc(-c3cccs3)nc3cccc(F)c23)C1=O` [Compound 20, 4-(N-AMINOCITRACONAMIDO)-5-FLUORO-2-(2'-THIENYL)QUINAZOLINE], for which the pIC50 with AP-1 is 7.15; in the experiment with NFκB, 6.70.
On the same counts, the results for `CC1=CC(=O)N(Nc2nc(-c3cccs3)nc3cccc(Cl)c23)C1=O` [Compound 21, 4-(N-AMINOCITRACONAMIDO)-5-CHLORO-2-(2'-THIENYL)QUINAZOLINE] are 7.52 and 7.70.
For `CC1=CC(=O)N(Nc2nc(-c3cccs3)nc3cccc(C)c23)C1=O` [Compound 22, 4-(N-AMINOCITRACONAMIDO)-5-METHYL-2-(2'-THIENYL)QUNINAZOLINE], in that order: 7.52 and 8.00.
For `CC1=CC(=O)N(Nc2nc(-c3cccs3)nc3cc(N(C)C)ccc23)C1=O` [Compound 23, 4-(N-AMINOCITRACONAMIDO)-7-DIMETHYLAMINO-2-(2'-THIENYL)QUINAZOLINE], in that order: 7.40 and 7.40.
Consider `O=P1(N(CCCl)CCCl)NCCCO1` (stereo not shown) [cyclophosphamide], for which, in the experiment on mice [1], the “activity in the delayed-type hypersensitivity (oxazolone) model” value is recorded as “active”. In addition, the “activity in the popliteal lymph node (PLN) model” value in the experiment with mice [2] was “active”.
